Test results as given in paper PMC9481151, “Discovery of new symmetrical and asymmetrical nitrile-containing 1,4-dihydropyridine derivatives as dual kinases and P-glycoprotein inhibitors: synthesis, in vitro assays, and in silico studies” (Journal of Enzyme Inhibition and Medicinal Chemistry, 2022).
Values joined by “and” are separate entries in the source; they are usually repeats but may differ in a detail not shown here. Identical values can stand only once.

Tests used:
MDA-MB-468 = experiment: NCI single dose (10 µM) SRB screen; format: cell-based, human; settings: breast cancer, 48 h
786-0 = experiment: NCI single dose (10 µM) SRB screen; format: cell-based, human; settings: renal cancer, 48 h
SF-268 = experiment: NCI single dose (10 µM) SRB screen; format: cell-based, human; settings: CNS cancer, 48 h
PC-3 = experiment: NCI single dose (10 µM) SRB screen; format: cell-based, human; settings: prostate cancer, 48 h
Escherichia coli = experiment: Agar well diffusion method
SNB-19 = experiment: NCI single dose (10 µM) SRB screen; format: cell-based, human; settings: CNS cancer, 48 h
HT29 = experiment: NCI single dose (10 µM) SRB screen; format: cell-based, human; settings: colon cancer, 48 h
OVCAR-4 = experiment: NCI single dose (10 µM) SRB screen; format: cell-based, human; settings: ovarian cancer, 48 h
RPMI-8226 = experiment: NCI single dose (10 µM) SRB screen; format: cell-based, human; settings: leukaemia, 48 h
CCRF-CEM = experiment: NCI single dose (10 µM) SRB screen; format: cell-based, human; settings: leukaemia, 48 h
OVCAR-5 = experiment: NCI single dose (10 µM) SRB screen; format: cell-based, human; settings: ovarian cancer, 48 h
NCI-H522 = experiment: NCI single dose (10 µM) SRB screen; format: cell-based, human; settings: non-small cell lung cancer, 48 h
SW-620 = experiment: NCI single dose (10 µM) SRB screen; format: cell-based, human; settings: colon cancer, 48 h
SK-OV-3 = experiment: NCI single dose (10 µM) SRB screen; format: cell-based, human; settings: ovarian cancer, 48 h
TK-10 = experiment: NCI single dose (10 µM) SRB screen; format: cell-based, human; settings: renal cancer, 48 h
SN12C = experiment: NCI single dose (10 µM) SRB screen; format: cell-based, human; settings: renal cancer, 48 h
NCI-H460 = experiment: NCI single dose (10 µM) SRB screen; format: cell-based, human; settings: non-small cell lung cancer, 48 h
NCI/ADR-RES = experiment: NCI single dose (10 µM) SRB screen; format: cell-based, human; settings: ovarian cancer, 48 h
IGROV1 = experiment: NCI single dose (10 µM) SRB screen; format: cell-based, human; settings: ovarian cancer, 48 h
UACC-257 = experiment: NCI single dose (10 µM) SRB screen; format: cell-based, human; settings: melanoma, 48 h
OVCAR-8 = experiment: NCI single dose (10 µM) SRB screen; format: cell-based, human; settings: ovarian cancer, 48 h
MDA-MB-435 = experiment: NCI single dose (10 µM) SRB screen; format: cell-based, human; settings: melanoma, 48 h
NCI-H226 = experiment: NCI single dose (10 µM) SRB screen; format: cell-based, human; settings: non-small cell lung cancer, 48 h
OVCAR-3 = experiment: NCI single dose (10 µM) SRB screen; format: cell-based, human; settings: ovarian cancer, 48 h
Aspergillus flavus = experiment: Agar well diffusion method
HCT-116 = experiment: NCI single dose (10 µM) SRB screen; format: cell-based, human; settings: colon cancer, 48 h
NCI 60 cancer cell lines = experiment: NCI single dose (10 µM) SRB screen, mean over panel; format: cell-based, human; settings: mean over 60 cell lines, 48 h
DU-145 = experiment: NCI single dose (10 µM) SRB screen; format: cell-based, human; settings: prostate cancer, 48 h
ACHN = experiment: NCI single dose (10 µM) SRB screen; format: cell-based, human; settings: renal cancer, 48 h
SK-MEL-5 = experiment: NCI single dose (10 µM) SRB screen; format: cell-based, human; settings: melanoma, 48 h
A549/ATCC = experiment: NCI single dose (10 µM) SRB screen; format: cell-based, human; settings: non-small cell lung cancer, 48 h
CAKI-1 = experiment: NCI single dose (10 µM) SRB screen; format: cell-based, human; settings: renal cancer, 48 h
LOX IMVI = experiment: NCI single dose (10 µM) SRB screen; format: cell-based, human; settings: melanoma, 48 h
SR = experiment: NCI single dose (10 µM) SRB screen; format: cell-based, human; settings: leukaemia, 48 h
SK-MEL-28 = experiment: NCI single dose (10 µM) SRB screen; format: cell-based, human; settings: melanoma, 48 h
KM12 = experiment: NCI single dose (10 µM) SRB screen; format: cell-based, human; settings: colon cancer, 48 h
NCI-H23 = experiment: NCI single dose (10 µM) SRB screen; format: cell-based, human; settings: non-small cell lung cancer, 48 h
M14 = experiment: NCI single dose (10 µM) SRB screen; format: cell-based, human; settings: melanoma, 48 h
COLO 205 = experiment: NCI single dose (10 µM) SRB screen; format: cell-based, human; settings: colon cancer, 48 h
U251 = experiment: NCI single dose (10 µM) SRB screen; format: cell-based, human; settings: CNS cancer, 48 h
MOLT-4 = experiment: NCI single dose (10 µM) SRB screen; format: cell-based, human; settings: leukaemia, 48 h
SNB-75 = experiment: NCI single dose (10 µM) SRB screen; format: cell-based, human; settings: CNS cancer, 48 h
Bacillus subtilis = experiment: Agar well diffusion method
SF-295 = experiment: NCI single dose (10 µM) SRB screen; format: cell-based, human; settings: CNS cancer, 48 h
Staphylococcus aureus = experiment: Agar well diffusion method
SF-539 = experiment: NCI single dose (10 µM) SRB screen; format: cell-based, human; settings: CNS cancer, 48 h
HL-60(TB) = experiment: NCI single dose (10 µM) SRB screen; format: cell-based, human; settings: leukaemia, 48 h
A498 = experiment: NCI single dose (10 µM) SRB screen; format: cell-based, human; settings: renal cancer, 48 h
RXF 393 = experiment: NCI single dose (10 µM) SRB screen; format: cell-based, human; settings: renal cancer, 48 h
MCF7 = experiment: NCI single dose (10 µM) SRB screen; format: cell-based, human; settings: breast cancer, 48 h
NCI-H322M = experiment: NCI single dose (10 µM) SRB screen; format: cell-based; settings: non-small cell lung cancer, 48 h
MALME-3M = experiment: NCI single dose (10 µM) SRB screen; format: cell-based, human; settings: melanoma, 48 h

## CCOC(=O)C1=C(C)NC(C)=C(C(=O)OC)C1c1cccc(C#N)c1 (racemic) [Compound 2g, (±)-3-Ethyl 5-methyl 4-(3-cyanophenyl)-2,6-dimethyl-1,4-dihydropyridine-3,5-dicarboxylate]
MDA-MB-468
  GI% MDA-MB-468: – (Only GI% ≥ 10 are shown)
786-0
  GI% 786-0: – (Only GI% ≥ 10 are shown)
SF-268
  GI% SF-268: – (Only GI% ≥ 10 are shown)
PC-3
  GI% PC-3: – (Only GI% ≥ 10 are shown)
Escherichia coli; Escherichia coli, 24 h, read-out: Diameter of inhibition zone, E. coli
  zone of inhibition at 1000 µg/mL: 19 mm
Escherichia coli; relative to ciprofloxacin
  % activity index, E. coli: 73% and 73.1%
SNB-19
  GI% SNB-19: – (Only GI% ≥ 10 are shown)
HT29
  GI% HT29: – (Only GI% ≥ 10 are shown)
OVCAR-4
  GI% OVCAR-4: – (Only GI% ≥ 10 are shown)
RPMI-8226
  GI% RPMI-8226: – (Only GI% ≥ 10 are shown)
CCRF-CEM
  GI% CCRF-CEM: – (Only GI% ≥ 10 are shown)
OVCAR-5
  GI% OVCAR-5: – (Only GI% ≥ 10 are shown)
NCI-H522
  GI% NCI-H522: – (Only GI% ≥ 10 are shown)
SW-620
  GI% SW-620: – (Only GI% ≥ 10 are shown)
SK-OV-3
  GI% SK-OV-3: – (Only GI% ≥ 10 are shown)
TK-10
  GI% TK-10: – (Only GI% ≥ 10 are shown)
SN12C
  GI% SN12C: – (Only GI% ≥ 10 are shown)
NCI-H460
  GI% NCI-H460: – (Only GI% ≥ 10 are shown)
NCI/ADR-RES
  GI% NCI/ADR-RES: – (Only GI% ≥ 10 are shown)
IGROV1
  GI% IGROV1: – (Only GI% ≥ 10 are shown)
UACC-257
  GI% UACC-257: – (Only GI% ≥ 10 are shown)
OVCAR-8
  GI% OVCAR-8: – (Only GI% ≥ 10 are shown)
MDA-MB-435
  GI% MDA-MB-435: – (Only GI% ≥ 10 are shown)
NCI-H226
  GI% NCI-H226: – (Only GI% ≥ 10 are shown)
OVCAR-3
  GI% OVCAR-3: – (Only GI% ≥ 10 are shown)
Aspergillus flavus; Aspergillus flavus, 24 h, read-out: Diameter of inhibition zone, A. flavus
  zone of inhibition at 1000 µg/mL: 24 mm
Aspergillus flavus; relative to clotrimazole
  % activity index, A. flavus: 96%
HCT-116
  GI% HCT-116: – (Only GI% ≥ 10 are shown)
NCI 60 cancer cell lines
  Mean GI%: −1%
DU-145
  GI% DU-145: – (Only GI% ≥ 10 are shown)
ACHN
  GI% ACHN: – (Only GI% ≥ 10 are shown)
SK-MEL-5
  GI% SK-MEL-5: – (Only GI% ≥ 10 are shown)
A549/ATCC
  GI% A549/ATCC: – (Only GI% ≥ 10 are shown)
CAKI-1
  GI% CAKI-1: – (Only GI% ≥ 10 are shown)
LOX IMVI
  GI% LOX IMVI: – (Only GI% ≥ 10 are shown)
SR
  GI% SR: 14%
SK-MEL-28
  GI% SK-MEL-28: – (Only GI% ≥ 10 are shown)
KM12
  GI% KM12: – (Only GI% ≥ 10 are shown)
NCI-H23
  GI% NCI-H23: – (Only GI% ≥ 10 are shown)
M14
  GI% M14: – (Only GI% ≥ 10 are shown)
COLO 205
  GI% COLO 205: – (Only GI% ≥ 10 are shown)
U251
  GI% U251: – (Only GI% ≥ 10 are shown)
MOLT-4
  GI% MOLT-4: – (Only GI% ≥ 10 are shown)
SNB-75
  GI% SNB-75: – (Only GI% ≥ 10 are shown)
Bacillus subtilis; Bacillus subtilis, 24 h, read-out: Diameter of inhibition zone, B. subtilis
  zone of inhibition at 1000 µg/mL: 19 mm
Bacillus subtilis; relative to ciprofloxacin
  % activity index, B. subtilis: 82% and 82.6%
SF-295
  GI% SF-295: – (Only GI% ≥ 10 are shown)
Staphylococcus aureus; Staphylococcus aureus, 24 h, read-out: Diameter of inhibition zone, S. aureus
  zone of inhibition at 1000 µg/mL: 22 mm
Staphylococcus aureus; relative to ciprofloxacin
  % activity index, S. aureus: 91% and 91.7%
SF-539
  GI% SF-539: – (Only GI% ≥ 10 are shown)
HL-60(TB)
  GI% HL-60(TB): – (Only GI% ≥ 10 are shown)
A498
  GI% A498: – (Only GI% ≥ 10 are shown)
RXF 393
  GI% RXF 393: – (Only GI% ≥ 10 are shown)
MCF7
  GI% MCF7: 11%
NCI-H322M
  GI% NCI-H322M: – (Only GI% ≥ 10 are shown)
MALME-3M
  GI% MALME-3M: – (Only GI% ≥ 10 are shown)
